Literature values as cited in patent US20260284237A1, “RADIOLABELED FAPI COMPLEX, AND PREPARATION METHOD THEREFOR AND USE THEREOF” (BEIJING NORMAL UNIVERSITY, priority 2023, published 2026).

Columns and labels:
[1] = background statement
FAP = conditions: background statement

SMILES: N#C[C@@H]1CC(F)(F)CN1C(=O)CNC(=O)c1ccnc2ccc(OCCCN3CCN(C(=O)CN4CCN(CC(=O)O)CCN(CC(=O)O)CCN(CC(=O)O)CC4)CC3)cc12 [FAPI-04]
- tumor uptake as radiotherapeutic drug [1]: relatively low tumor uptake
- affinity and specificity toward the FAP (FAP): favorable affinity and specificity toward the FAP
